Assay results taken from PMC10610214 (Pharmaceuticals, 2023).
Where “and” joins values, the source holds several entries; their conditions need not be identical. Equal entries are not always repeated.

Tests used:
BuChE = target: T1, BuChE (Equus caballus, UniProt P81908); assay: Kinetic study of BuChE inhibition (Lineweaver–Burk); format: biochemical
T1 construct: BuChE (from equine serum); purchased Sigma Chemical Company (St. Louis, MO, USA); host or cells: equine serum
Procedure: The specific steps are similar to those described in Section 4.3 for the enzyme inhibition assay. In brief, 100 μL of different concentrations of 4h (0, 0.075, 0.15, and 0.3 μM)/4h (0, 3, 6, and 12 μM) and 100 μL of different concentrations of AChE/BuChE (1, 0.5, 0.25, 0.125, and 0.0625 U/mL) were added into 48-well plates and then co-incubated at 37 °C for 30 min. After the end of incubation, 100 μL of ATCI/BTCI (0.35 mM), 100 μL of PB solution, and 100 μL DTNB (0.35 mM) were added, and then changes in absorbance were measured at different times at 412 nm by multifunctional microplate reader, and the catalytic reaction rate of AChE/BuChE was determined. All concentrations are final. With the enzyme reaction rate V as the ordinate and AChE/BuChE concentration as the abscissa, the curve was drawn to determine the reversibility of the compound to AChE/BuChE.
In order to determination of inhibition types and the constant of AChE/BuChE, the concentration of AChE/BuChE (0.5 U/mL) in the reaction system was fixed. Five different substrate concentrations and four different concentrations of test compound 4h were used to measure the absorbance changes at different times at 412 nm. The reciprocal of the enzymatic reaction rate (1/V) was taken as the ordinate, and the reciprocal of the substrate ATCI/BTCI concentration (1/S) was taken as the abscissa.
[…]. […]

PC12 cells = assay: Cytotoxicity in PC12 cells (MTT); format: cell-based
Procedure: The cytotoxicity and neuroprotective effects of the compounds on PC12 cells were evaluated by MTT assay. PC12 cells were seeded into a 96-well plate at a density of 5.0 × 10^3 cells per well. After the cells were incubated overnight, the old medium was discarded. The cells were incubated for another 24 h with fresh medium containing compounds at a concentration of 30 or 50 μM. A total of 20 μL of MTT solution (5 mg/mL, Sigma-Aldrich, Shanghai, China) was then added per well, and the cells were incubated for an additional 4 h. Afterwards, the supernatant was removed and 150 μL of DMSO was added to solubilize formazan crystals. The 96-well plate was placed on the shaker for 10–15 min, and then the absorbance at 492 nm was measured by a microplate reader.

TNF-α in BV2 cells = assay: TNF-α secretion in LPS-stimulated BV2 cells (ELISA); format: cell-based; settings: Mus musculus, BV-2, 24 h, read-out: TNF-α inhibition IC50
Procedure: The cytotoxicity of compounds on BV2 cells were evaluated by MTT assay and similar to those described in Section 2.5. The NO concentrations in medium were determined using Griess Reagent assay (Beyotime) in accordance with a previously reported method. Nitrite is reduced to nitrogen oxide using Griess Reagent I. Nitrogen oxide then reacts with Griess Reagent II forming a stable product that can be detected by its absorbance at […]. The two-step assay is simple, fast, and can detect nitrite levels as low as 1 nmol/well. BV2 cells were seeded into a 48-well plate at a density of 6.0 × 10^4 cells per well. After the cells were incubated overnight, the old medium was discarded. Then, the cells were pretreated with various concentrations (10, 5, 1, 0.5, and 0.1 μM) of compounds for 1 h and then co-incubated with LPS (1 μg/mL, 30 μL/well) for 24 h. After 24 h, the cell supernatant (50 μL/well) was placed into a new 96-well plate for experiment. […] The absorbance at […] was measured by a microplate reader.
The contents of TNF-α and IL-β in the cell supernatant were measured via ELISA (Jyimei, Wuhan, China) following the manufacturer’s instructions.

AML-12 cells = assay: Hepatotoxicity in AML-12 cells (MTT); format: cell-based; settings: 10, 30 and 50 μM
Procedure: (§1) The hepatotoxicity of compound 4h in normal AML-12 hepatocytes and HepG2 liver cancer cells was examined by MTT method. AML-12 cells and HepG2 cells were seeded into 96-well plates at a density of 5.0 × 10^3 cells per well, respectively. After the cells were incubated overnight, the old medium was discarded. The cells were incubated for 48 h with fresh medium containing various concentrations of the test compound. After 48 h of incubation, 20 μL of MTT (5 mg/mL) was added to each well and incubate for an additional 4 h. Formazan was dissolved with DMSO (150 μL). […]

HepG2 cells = assay: Hepatotoxicity in HepG2 cells (MTT); format: cell-based; settings: 10, 30 and 50 μM
Procedure: as §1

[1] = system: scopolamine-induced AD mice; assay: Morris water maze, scopolamine-induced AD mouse model; format: in vivo
Procedure: Mice were reared in a temperature and humidity controlled environment with free access to food and water, with self-adaptive rearing for 4 days.
According to behavioral experiments, 30 mice were randomly divided into 5 groups. […] On day 7, scopolamine hydrobromide was injected intraperitoneally into the of the mouse to establish an AD model. The control group were only injected normal saline. After 30 min, the bodyweight changes in mice during the administration period were recorded.
The MWM is a white circular pool (150 cm in diameter, 60 cm in height; no features on the inner surface) with a water height of 46 cm and a white platform (10 cm in diameter) submerged 1 cm below the water surface. White titanium dioxide (0.25 g/L) was added to make the water turbid to make the platform invisible, and the platform was fixed in the third quadrant of the circular pool (four quadrants in total). Training was performed by allowing mice to stay for 15 s after reaching the platform. If the mice successfully found the platform within 60 s, they were allowed to stay on the platform for 15 s; otherwise, they were brought to the platform and stayed for 15 s. The training was performed four times a day for a total of 4 days of training. Except for the control group, animals were intraperitoneally injected with scopolamine 90 min before the test to induce cognitive deficits mimicking. On day 5, a probe trial was conducted with the platform removed. Mice were placed in the quadrant opposite the target for 60 s, and their swim path was recorded to evaluate memory retention. Performance measures included latency to reach the platform location and time spent in each quadrant.

[2] = Morris water maze probe trial, day 5

T1 sequence (P81908 whole entry): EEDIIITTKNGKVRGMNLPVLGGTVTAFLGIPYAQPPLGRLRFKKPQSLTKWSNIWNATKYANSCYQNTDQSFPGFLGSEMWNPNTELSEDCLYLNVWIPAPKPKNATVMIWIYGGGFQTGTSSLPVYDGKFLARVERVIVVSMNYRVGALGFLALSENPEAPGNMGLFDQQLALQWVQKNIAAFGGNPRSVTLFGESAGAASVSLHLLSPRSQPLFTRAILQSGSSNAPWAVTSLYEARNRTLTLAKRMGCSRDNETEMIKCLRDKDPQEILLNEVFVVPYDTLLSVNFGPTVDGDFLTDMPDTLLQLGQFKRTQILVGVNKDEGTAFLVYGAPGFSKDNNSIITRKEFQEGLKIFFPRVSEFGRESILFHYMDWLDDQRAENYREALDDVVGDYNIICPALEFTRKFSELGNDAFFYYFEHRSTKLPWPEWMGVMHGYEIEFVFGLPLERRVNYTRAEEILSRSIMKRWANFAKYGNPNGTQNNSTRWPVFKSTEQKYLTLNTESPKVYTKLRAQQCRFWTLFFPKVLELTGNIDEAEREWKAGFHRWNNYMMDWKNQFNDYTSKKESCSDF

## O=C1c2cc(NS(=O)(=O)c3ccccc3F)ccc2-n2c1nc1ccccc1c2=O [4h]
BuChE; Lineweaver–Burk double-reciprocal plot
  BuChE inhibition type: mixed-type inhibition
BuChE; Lineweaver–Burk secondary plot
  Ki: 5.33 µM
PC12 cells; compound 30 μM, 30 µM
  Cell Viability (% of Control): 99.62 ± 0.94 % of Control and 99.6 ± 0.9 % of Control
PC12 cells; compound 50 μM, 50 µM
  Cell Viability (% of Control): 99.21 ± 1.57 % of Control and 99.2 ± 1.5 % of Control
TNF-α in BV2 cells
  IC50: 1.31 ± 0.28 µM
AML-12 cells
  Hepatotoxicity in AML-12 cells: had no toxicity
HepG2 cells
  Hepatotoxicity in HepG2 cells: had no toxicity
[1]; 10 and 30 mg/kg, gavage, 7 days
  Bodyweight of mice: did not cause any abnormal fluctuations in the bodyweight of mice
[1]; [2]
  Dwell time in the target quadrant: markedly higher in the 30 mg/kg dose group than those in the model and 10 mg/kg dose groups
  Number of virtual platform crossings: markedly higher in the 30 mg/kg dose group than those in the model and 10 mg/kg dose groups
[1]; Morris water maze, 10 and 30 mg/kg gavage, training days
  Escape latency: decreased in a dose-dependent manner
